Assay results as given in PubChem BioAssay (NCI).
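Values below derive from 48-hour exposures of cells grown in 96-well plates, with endpoints linearly interpolated between the two concentrations bracketing the appropriate inhibition level. GI50: concentration for 50% inhibition of growth. TGI marks complete inhibition of growth.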

Tested on: MDA-MB-468 breast
Assay: inhibition of tumour cell growth, NCI panel, 48 h

| Structure (SMILES) | GI50 [µM] | TGI [µM] |
| --- | --- | --- |
| NC1CCN(c2nc(Nc3cccc(C(F)(F)F)c3)c3c(=O)[nH]ccc3n2)CC1 | 1.49 | 2.98 |
| NC(=O)c1cc(Br)cc(C2CCCCC2)c1O | 13.8 | 29.2 |
| Cn1c(=O)c(Oc2ccccc2F)cc2cnc(NC3CCOCC3)nc21 | > 25 | > 25 |
| Clc1ccc2[nH]cc(-c3nc(-c4c[nH]c5ncccc45)cs3)c2c1 | 2.62 | 9.41 |
| N=C(N=C(N)N)N1CCN(c2ccncc2)CC1 | > 1000 | > 1000 |
| Cc1cc(CNC(=O)OCc2ccccc2)c(C)c2c1Oc1ccccc1O2 | 95.6 | > 100 |
| CC(C)c1ccc(C(=O)Nc2sc3c(c2C#N)CCC(=O)C3)cc1 | 0.389 | 2.4 |
| Cc1cc(C)c(C[N+](C)(C)C)c(C)c1C | 0.495 | 9.2 |
| Cc1nc2sc(C(=O)Nc3cccc4ccccc34)c(N)c2cc1C(=O)c1ccccc1 | 1.66 | > 50 |
| COc1ccc(-c2cc(/C=C3\C(=O)Nc4ccc(Cl)cc43)[nH]n2)cc1 | 3.6 | 13.5 |
| ClC(Cl)c1nc(-c2cccnc2)n2nc(-c3ccccc3)cc2n1 | 0.247 | 0.793 |
| OCC1OC(n2ccc3c(NO)ncnc32)C(O)C1O (stereo not drawn) | 0.122 | 0.777 |
| O=C(c1ccc2ncc(-c3nc(NC4CC4)ncc3F)n2c1)N1CCOCC1 | 1.79 | 4.34 |
| O=[N+]([O-])c1ccc(N/N=C/c2c(O)ccc3ccccc23)nc1 | 4.47 | 49.4 |
| N#Cc1cnc2cc(OC[C@@H](O)CO)c(NC(=O)CC3CSSC3)cc2c1Nc1ccc(OCc2cccc(F)c2)c(Cl)c1 | 0.0698 | 0.155 |
| CCN1C(=S)N(CC)C2C1NC(=S)N2/N=C/C=C/c1ccccc1 (stereo not drawn) | 0.458 | 4.19 |
| CCOC(=O)C(=Cc1ccccc1[N+](=O)[O-])C(=O)OCC | 1.53 | 4.68 |
| CCCCCCCCCCN(CCCCCCCCCC)CC(=O)c1ccc2cc(Br)c3ccccc3c2c1 | 1.7 | 3.14 |
| CC(=O)[C@@H]1CCC=C2CC[C@]3(C)[C@@H](CC[C@@H]4[C@@]5(C)CCCNC(C)(C)[C@@H]5CC[C@]43C)[C@H]21 | 1.78 | 3.43 |
| COc1cc(/C=C\[N+](=O)[O-])ccc1OCc1ccccc1 | 1.47 | 3.26 |
| CC/C=C\C[C@H](O)C/C=C1/C(=O)C=C[C@@H]1C/C=C\CCCC(=O)N(C)C | 1.43 | 3.38 |
| CN(C)CCCN1c2nc3ccccc3cc2Sc2cc3ccccc3nc21 | 1.65 | 4.44 |
| O=C(Nc1ccc(F)cc1)c1c(NC(=O)C(F)(F)F)sc2c1CCCCC2 | 1.04 | 4.85 |
| C=C1C(=O)O[C@H]2[C@H]1CC/C(COC(=O)NCc1ccc(Cn3c(=O)sn(CCCCl)c3=O)cc1)=C\CC[C@@]1(C)O[C@@H]21 | 1.53 | 4.33 |
